Results reported in US20130066055A1, “NEW BINDER-DRUG CONJUGATES (ADCS) AND USE THEREOF” (Bayer Intellectual Property GmbH, priority 2011, published 2013).
Structures can show the parent of a compound that is named as a salt. Square brackets hold non-standard residues; d marks the D form. Peptide text beside a SMILES is read from it. * marks the point of attachment. X2 = CC(C)[C@@H](C(=O)*)N(C)CCCCCCN1C(=O)CC(SC[C@H](N)C(=O)O)C1=O; X1 = CC(C)[C@@H](C(=O)*)N(C)CCCCCC(=O)NCCCC[C@H](N)C(=O)O; Dolaproine = CO[C@@H]([C@@H]1CCCN1)[C@@H](C)C(=O)O; Dil = CC[C@H](C)[C@H](NC)[C@@H](CC(=O)O)OC; X5 = C[C@@H](N*)[C@@H](O)c1ccccc1; Oxazinan2yl(1,2) = C1CCN(*)OC1; NMeV = CN[C@H](C(=O)O)C(C)C

Assays:
tubulin = assay: Fluorescence-based microtubule (tubulin) polymerization assay; type: biochemical
Experimental: Tubulin polymerization was investigated using the “Fluorescence-based Microtubule Polymerisation Assay Kit” from Cytoskeleton (Denver, Colo., USA; order number: BK011). With this assay, GTP is added to unpolymerized tubulin, allowing polymerization to take place spontaneously. The assay is based on the binding of the fluorophore 4′,6-di-amidino-2-phenylindole (DAPI) to tubulin. Free and bound DAPI can be differentiated on the basis of different emission spectra.
[…] In addition to the buffer control, paclitaxel, with a polymerization-increasing effect, and vinblastin, with a polymerization inhibiting effect, were run additionally as assay controls. Measurement was carried out using 96-well plates with a half base area. The kinetics of the tubulin polymerization were monitored in a Fluorimeter at 37° C. for 1 hour. The excitation wavelength was 355 nm, and emission was monitored at 460 nm. For the region of linear increase within the first 10 minutes, a calculation was made of the change in fluorescence per minute (ΔF/min), which represents the polymerization rate of the microtubuli. The potency of the test substances was quantified on the basis of their respective reduction of the polymerization rate.

[1] = target: T1, P-glycoprotein (P-gp, ABCB1) (Homo sapiens, UniProt P08183); assay: Flux assay in P-gp overexpressing L-MDR1 cells; type: in vitro ADME; details: LLC-PK1, basal to apical
T1 construct: expressed in transfected cells; host or cells: LLC-PK1 (pig kidney) cells transfected with human MDR1 (L-MDR1 cells)
Experimental: The substrate properties of a substance for P-gp (ABCB1) were determined by means of a flux assay using LLC-PK1 cells which overexpress P-gp (L-MDR1 cells) [A. H. Schinkel et al., J. Clin. Invest. 96, 1698-1705 (1995)]. For this purpose, the LLC-PK1 cells or L-MDR1 cells were cultured on 96-well filter plates for 3-4 days. For determination of the permeation, the respective test substance, alone or in the presence of an inhibitor (such as Ivermectin or Verapamil, for example), was applied in a HEPES buffer to the cells either apically (A) or basally (B) and incubated for 2 hours. After 0 hours and after 2 hours, samples were taken from the cis and trans compartments. The samples were separated by HPLC using reverse phase columns. The HPLC system was coupled via a Turbo Ion Spray Interface to a Triple Quadropol mass spectrometer API 3000 (Applied Biosystems Applera, Darmstadt, Germany). The permeability was evaluated on the basis of a Papp value which was calculated using the formula published by Schwab et al. [D. Schwab et al., J. Med. Chem. 46, 1716-1725 (2003)].

[2] = Caco-2 flux assay for cell permeability; type: in vitro ADME; details: human, Caco-2 cells, basal to apical
Experimental: (§1) The cell permeability of a substance can be investigated by means of in vitro testing in a flux assay using Caco-2 cells [M. D. Troutman and D. R. Thakker, Pharm. Res. 20 (8), 1210-1224 (2003)]. For this purpose, the cells were cultured for 15-16 days on 24-well filter plates. For the determination of permeation, the respective working example was applied in a HEPES buffer to the cells either apically (A) or basally (B) and incubated for 2 hours. After 0 hours and after 2 hours, samples were taken from the cis and trans compartments. The samples were separated by HPLC (Agilent 1200, Böblingen, Germany) using reverse phase columns. The HPLC system was coupled via a Turbo Ion Spray Interface to a Triple Quadropol mass spectrometer API 4000 (Applied Biosystems Applera, Darmstadt, Germany). The permeability was evaluated on the basis of a Papp value, which was calculated using the formula published by Schwab et al. [D. Schwab et al., J. Med. Chem. 46, 1716-1725 (2003)].

Caco-2 cells = assay: Caco-2 flux assay for cell permeability; type: in vitro ADME; details: basal to apical, 2 hours
Experimental: as §1

T1 sequence (P08183 whole entry): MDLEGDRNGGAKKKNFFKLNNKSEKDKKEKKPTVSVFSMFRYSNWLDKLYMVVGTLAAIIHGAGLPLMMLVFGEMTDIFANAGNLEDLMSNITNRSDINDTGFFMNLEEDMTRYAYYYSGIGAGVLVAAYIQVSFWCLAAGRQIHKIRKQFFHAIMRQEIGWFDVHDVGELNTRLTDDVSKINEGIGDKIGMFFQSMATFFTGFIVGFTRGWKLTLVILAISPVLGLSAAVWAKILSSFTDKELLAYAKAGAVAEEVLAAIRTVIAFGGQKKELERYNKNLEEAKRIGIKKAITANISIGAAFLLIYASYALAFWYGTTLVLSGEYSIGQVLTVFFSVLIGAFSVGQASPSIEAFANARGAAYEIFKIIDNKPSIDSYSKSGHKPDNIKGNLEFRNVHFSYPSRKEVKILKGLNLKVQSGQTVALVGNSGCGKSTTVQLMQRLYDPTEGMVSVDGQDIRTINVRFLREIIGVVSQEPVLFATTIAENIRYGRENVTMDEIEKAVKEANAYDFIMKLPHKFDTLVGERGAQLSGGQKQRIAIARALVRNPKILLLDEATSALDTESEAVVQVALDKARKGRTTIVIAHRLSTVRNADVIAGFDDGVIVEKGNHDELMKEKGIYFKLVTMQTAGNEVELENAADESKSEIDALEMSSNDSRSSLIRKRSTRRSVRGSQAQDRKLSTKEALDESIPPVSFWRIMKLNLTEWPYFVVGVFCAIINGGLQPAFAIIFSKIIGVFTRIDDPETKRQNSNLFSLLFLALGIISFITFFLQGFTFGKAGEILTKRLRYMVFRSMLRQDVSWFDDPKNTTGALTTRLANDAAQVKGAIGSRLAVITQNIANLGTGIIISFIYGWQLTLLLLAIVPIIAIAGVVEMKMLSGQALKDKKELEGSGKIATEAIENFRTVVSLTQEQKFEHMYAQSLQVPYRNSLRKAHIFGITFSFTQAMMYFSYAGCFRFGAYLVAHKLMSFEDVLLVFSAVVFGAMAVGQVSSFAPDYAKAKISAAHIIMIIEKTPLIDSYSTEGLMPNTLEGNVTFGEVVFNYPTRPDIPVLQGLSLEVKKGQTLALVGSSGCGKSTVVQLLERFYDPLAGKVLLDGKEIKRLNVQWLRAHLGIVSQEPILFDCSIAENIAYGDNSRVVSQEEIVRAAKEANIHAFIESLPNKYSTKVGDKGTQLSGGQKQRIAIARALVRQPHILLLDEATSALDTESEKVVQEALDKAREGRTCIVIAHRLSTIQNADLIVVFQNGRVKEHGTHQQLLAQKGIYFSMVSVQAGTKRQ

SMILES | Tubulin polymerization in the presence of toxophore in [%]. Tubulin polymerization rate at 1 μM MMAF set at 100% (tubulin; toxophore 1 μM) | Tubulin polymerization in the presence of toxophore in [%]. Tubulin polymerization rate at 1 μM MMAF set at 100% (tubulin; toxophore 10 μM) | Papp B→A at 2 h [1] | Papp B→A at 2 h [2] | Papp (B-A) (Caco-2 cells) | inhibition of tubulin polymerization (tubulin)
CC[C@H](C)[C@@H]([C@@H](CC(=O)N1CCC[C@H]1[C@H](OC)[C@@H](C)C(=O)N[C@@H](Cc1c[nH]c2ccccc12)C(=O)N1CCCCO1)OC)N(C)C(=O)[C@@H](NC(=O)[C@H](C(C)C)N(C)CCCCCC(=O)NCCCC[C@H](N)C(=O)O)C(C)C [Example 115, N-(6-{[(5S)-5-Amino-5-carboxypentyl]amino}-6-oxohexyl)-N-methyl-L-valyl-N-[(3R,4S,5S)-1-{(2S)-2-[(1R,2R)-3-{[(2S)-3-(1H-indol-3-yl)-1-(1,2-oxazinan-2-yl)-1-oxopropan-2-yl]amino}-1-methoxy-2-methyl-3-oxopropyl]pyrrolidin-1-yl}-3-methoxy-5-methyl-1-oxoheptan-4-yl]-N-methyl-L-valinamide trifluoroacetate] (X1-V[Dil][Dolaproine]W-{Oxazinan2yl(1,2)}) | 45% | 1% | 0.6 ×10⁻⁶ cm/s | 0.2 ×10⁻⁶ cm/s |  | 
CC[C@H](C)[C@@H]([C@@H](CC(=O)N1CCC[C@H]1[C@H](OC)[C@@H](C)C(=O)N[C@@H](Cc1c[nH]c2ccccc12)C(=O)O)OC)N(C)C(=O)[C@@H](NC(=O)[C@H](C(C)C)N(C)CCCCCCN1C(=O)CC(SC[C@H](N)C(=O)O)C1=O)C(C)C (stereo partly drawn) [Example 75, N-[6-(3-{[(2R)-2-Amino-2-carboxyethyl]sulphanyl}-2,5-dioxopyrrolidin-1-yl)hexyl]-N-methyl-L-valyl-N-[(3R,4S,5S)-1-{(2S)-2-[(1R,2R)-3-{[(1S)-1-carboxy-2-(1H-indol-3-yl)ethyl]amino}-1-methoxy-2-methyl-3-oxopropyl]pyrrolidin-1-yl}-3-methoxy-5-methyl-1-oxoheptan-4-yl]-N-methyl-L-valinamide] (X2-V[Dil][Dolaproine]W-OH) | 107% | 25% | 0.4 ×10⁻⁶ cm/s | 0.1 ×10⁻⁶ cm/s |  | 
CC[C@H](C)[C@@H]([C@@H](CC(=O)N1CCC[C@H]1[C@H](OC)[C@@H](C)C(=O)N[C@@H](Cc1c[nH]c2ccccc12)C(=O)NCc1ccccc1)OC)N(C)C(=O)[C@@H](NC(=O)[C@H](C(C)C)N(C)CCCC(=O)NNC(=O)CCCCCN1C(=O)CC(SC[C@H](N)C(=O)O)C1=O)C(C)C (stereo partly drawn) [Example 77, N-(4-{2-[6-(3-{[(2R)-2-Amino-2-carboxyethyl]sulphanyl}-2,5-dioxopyrrolidin-1-yl)hexanoyl]hydrazino}-4-oxobutyl)-N-methyl-L-valyl-N-[(3R,4S,5S)-1-{(2S)-2-[(1R,2R)-3-{[(2S)-1-(benzylamino)-3-(1H-indol-3-yl)-1-oxopropan-2-yl]amino}-1-methoxy-2-methyl-3-oxopropyl]pyrrolidin-1-yl}-3-methoxy-5-methyl-1-oxoheptan-4-yl]-N-methyl-L-valinamide] | 111% | 45% | 0.2 ×10⁻⁶ cm/s | 0.7 ×10⁻⁶ cm/s |  | 
CC[C@H](C)[C@@H]([C@@H](CC(=O)N1CCC[C@H]1[C@H](OC)[C@@H](C)C(=O)N[C@H](C)[C@@H](O)c1ccccc1)OC)N(C)C(=O)[C@@H](NC(=O)[C@@H](NC)C(C)C)C(C)C [MMAE, monomethylauristatin E, reference compound] (H-[NMeV]V[Dil][Dolaproine]-X5) |  |  |  |  | 7.3 ×10⁻⁶ cm/s | 
CC[C@H](C)[C@@H]([C@@H](CC(=O)N1CCC[C@H]1[C@H](OC)[C@@H](C)C(=O)N[C@@]1(C(=O)N2CCCCO2)C[C@@H]1c1ccccc1)OC)N(C)C(=O)[C@@H](NC(=O)[C@H](C(C)C)N(C)CCCC(=O)NNC(=O)CCCCCN1C(=O)CC(SC[C@H](N)C(=O)O)C1=O)C(C)C (stereo partly drawn) [Example 73, N-(4-{2-[6-(3-{[(2R)-2-Amino-2-carboxyethyl]sulphanyl}-2,5-dioxopyrrolidin-1-yl)hexanoyl]hydrazino}-4-oxobutyl)-N-methyl-L-valyl-N-[(3R,4S,5S)-3-methoxy-1-{(2S)-2-[(1R,2R)-1-methoxy-2-methyl-3-{[(1S,2R)-1-(1,2-oxazinan-2-ylcarbonyl)-2-phenylcyclopropyl]amino}-3-oxopropyl]pyrrolidin-1-yl}-5-methyl-1-oxoheptan-4-yl]-N-methyl-L-valinamide] | 120% |  | 0.21 ×10⁻⁶ cm/s | 0.25 ×10⁻⁶ cm/s |  | 
CC[C@H](C)[C@@H]([C@@H](CC(=O)N1CCC[C@H]1[C@H](OC)[C@@H](C)C(=O)N[C@@H](Cc1c[nH]c2ccccc12)C(N)=O)OC)N(C)C(=O)[C@@H](NC(=O)[C@H](C(C)C)N(C)CCCC(=O)NNC(=O)CCCCCN1C(=O)CC(SC[C@H](N)C(=O)O)C1=O)C(C)C (stereo partly drawn) [Example 71, N-(4-{2-[6-(3-{[(2R)-2-Amino-2-carboxyethyl]sulphanyl}-2,5-dioxopyrrolidin-1-yl)hexanoyl]hydrazino}-4-oxobutyl)-N-methyl-L-valyl-N-[(3R,4S,5S)-1-{(2S)-2-[(1R,2R)-3-{[(2S)-1-amino-3-(1H-indol-3-yl)-1-oxopropan-2-yl]amino}-1-methoxy-2-methyl-3-oxopropyl]pyrrolidin-1-yl}-3-methoxy-5-methyl-1-oxoheptan-4-yl]-N-methyl-L-valinamide] | 88% | 25% | 0.3 ×10⁻⁶ cm/s | 0.2 ×10⁻⁶ cm/s |  | 
CC[C@H](C)[C@@H]([C@@H](CC(=O)N1CCC[C@H]1[C@H](OC)[C@@H](C)C(=O)N[C@@H](Cc1ccccc1)C(=O)O)OC)N(C)C(=O)[C@@H](NC(=O)[C@@H](NC)C(C)C)C(C)C [MMAF, Monomethylauristatin F, reference compound] (H-[NMeV]V[Dil][Dolaproine]F-OH) | 100% | 34% |  |  | 7.3 ×10⁻⁶ cm/s | inhibit tubulin polymerization as a function of their concentration
